Reference: PMC9028786, “The Ribosome Is the Ultimate Receptor for Trypsin Modulating Oostatic Factor (TMOF)” (Biomolecules, 2022)
Read-outs that look alike come from different tables or passages of the source. Ends that are not written are not given here.

What was measured:
[1] = system: E. coli CGSC strain7636 cells expressing SbmA^+; assay: Growth/viability of E. coli CGSC strain7636 expressing SbmA; format: cell-based, Escherichia coli; details: 3 and 10 mM peptide, 37 °C, 18 h, p < 0.05 vs control
Experimental: (§1) We aimed to find out if AeaTMOF can also stop bacterial growth as, was shown for the proline-rich Oncocin112 that binds to the bacterial ribosome, stopping protein translation, bacterial growth, and causing bacterial death. E. coli CGSC strain7636 (2.7 × 10^4 cells) SbmA^+, expressing the proline-rich peptides importer SbmA, were incubated in 96-well plate containing 100 μL/well of LB medium, 0.4 mM of IPTG, 0.1 mM of ampicillin, and different concentrations of AeaTMOF and Oncocin112 (1–13) (3 mM and 10 mM) in different wells. The 96-well plate was incubated at 37 °C for 18 h and bacterial growth was followed at 630 nm using Biotech ElX808 absorbance microplate reader. Control wells contained bacterial cells growing without AeaTMOF or oncocin112 (1–13). […] After the incubations in the presence of Oncocin112 (1–13) or AeaTMOF of 10 mM and 3 mM, aliquots (0.5 μL) were removed from each well and spread on LB agar plates containing 0.1 mM of ampicillin, and the plates were incubated overnight at 37 °C and viable colonies were counted. Incubations were done in triplicates and the experiments were repeated twice. Results are expressed as means of three determinations ± SEM.

female mosquitoes = details: injection after blood meal; cited from earlier work
bacterial 70 S ribosome = assay: Inhibition of luciferase translation in E. coli S30 extract; format: biochemical, Escherichia coli; details: 2 h at 37 °C
Experimental: To test the effect of AeaTMOF and Oncocin112 (1–13) on the translation of Luciferase by the bacterial 70 S ribosome, an E. coli S30 lysate extract system for circular DNA (Promega) containing a plasmid pBestluc DNA vector (4486 bp) (1 mg/mL) 0.3 μL, amino acid mixture without methionine (1 mM) 1.25 μL, amino acid mixture without Leucine (1 mM) 1.25 μL, S30 premix (including ribosomes) without amino acids 5 μL, S30 extract circular 3.5 μL, RNasin (8 U, 112 ng) 0.2 μL, different concentrations of AeaTMOF or Oncocin112 (1–13) (0.001 μM to 1000 μM), and nuclease-free water to a volume of 12.5 μL were incubated for 2 h at 37 °C. […] After incubation, 87.5 μL of GLO lysis buffer (Promega) containing beetle luciferin was added, mixed, and aliquots (5 μL) were removed, and their luminescence read in a GLOMAX multidetector system. […] The decrease in luminescence (% ± SEM) in the presence of increasing log AeaTMOF or Oncocin112 (1–13) concentrations was then plotted using GrapPad Prism 3.

[2] = system: S. frugiperda 80S ribosomes; assay: Inhibition of larval Ae. aegypti late trypsin translation in TnT T7 insect cell extract; format: biochemical, Spodoptera frugiperda; details: TnT T7 insect cell extract from S. frugiperda Sf21, pFA25A ICE T7 flexi-late larval trypsin, [3H]leucine, 30 °C, 4 h, AeaTMOF 0.01–750 μM; mean of three determinations; linear regression; read-out: IC50, inhibition of Ae. aegypti late larval [3H]trypsin biosynthesis
[3] = system: E. coli mutant cells CGSC strain 8547 SbmA^- expressing only ABC-tmfA importer; assay: Growth/viability of E. coli mutant CGSC strain 8547 SbmA^- expressing ABC-tmfA importer; format: cell-based, Escherichia coli
Experimental: E. coli CGSC strain […] lacking the SbmA importer expressing the ABCtmfA receptor/importer was prepared using plasmid pTAC-MAT-2 ABCtmfA importer/receptor as described earlier. [3,4,5 ^3H]Leucine 250 μCi, Spc Act 100–150 Ci/mmol was purchased from Perkin Elmer (Waltham, MA, USA). AeaTMOF-FITC (H-YDPAPPPPPPK(FITC)K-OH) was synthesized at the University of Colorado Anschutz School of Medicine protein core. AeaTMOF-FITC was purified by HPLC showing a single peak, and mass spectrometry analysis of the peak identified the 3 expected ions at 455.7, 607.3, and 910.3, showing an expected Mr 1019.56 as was described earlier. Synthetic AeaTMOF (H-YDPAPPPPPP-OH) and a short Oncocin112(1–13) (H-VDKPPYLPRPRPP-OH), a 13 amino acids oncocin112 peptide, 6 amino acids shorter than the original oncocin112 of 19 amino acids, were synthesized and purified by HPLC [16]. After HPLC purifications of AeaTMOF, oncocin112 (1–13), and AeaTMOF-FITC, the TFA ions were exchanged with phosphate ions.
as §1

Ae. aegypti larvae = details: fed AeaTMOF expressed by engineered Chlorella desiccate, Saccharomyces cerevisiae, and Pichia pastoris; cited from earlier work
Source text: (§2) Several of these ABC transporters with 80–100% similarity with the AeaTMOF receptor are also found in several Aedes, Anopheles, and ...

[4] = system: trypsin mRNA in the gut epithelial cells; details: gut epithelial cells of Ae. aegypti and Neobellieria bullata; cited from earlier work
Source text: as §2

[5] = system: ABC-tmfA transporter (accession number MK895491); details: cited from earlier work
Source text: as §2

luciferase = assay: Effect on activity of pre-synthesized luciferase; format: biochemical, Beetle; details: S30 extract with pBESTluc for 4 h without peptide, then AeaTMOF 1 to 100 μM added; results not shown
Experimental: Incubations of E. coli S30 extract synthesizing Beetle luciferase in the presence of an increasing concentration of AeaTMOF (0.001 to 750 μM) stopped the biosynthesis of luciferase, diminishing its activity on Beetle luciferin as measured in luminescence units. The activity of the in vitro synthesized luciferase on Beetle luciferin at very low concentration of AeaTMOF (0.001 μM) was similar to luciferase activity without AeaTMOF, and this luminescence was used to calculate the decrease in luminescence (%) after incubation with increasing concentrations of AeaTMOF (Figure 1A). Higher concentrations of AeaTMOF (higher than 0.001 μM) caused a linear decrease in the synthesis of luciferase and a decline in luminescence (%) reaching IC50 (inhibition concentration of 50%) at 1 μM (Figure 1A). […] AeaTMOF is not an inhibitor of luciferase.

late trypsin transcript = details: cited from earlier work
Source text: (§3) Aedes aegypti Trypsin Modulating Oostatic Factor (AeaTMOF), a proline-rich peptide (YDPAPPPPPP), was originally isolated from the ovaries of female Ae. aegypti. AeaTMOF controls the biosynthesis of trypsin-like enzymes in the midgut epithelial cells of several species of mosquito including Aedes. aegypti, Culex quinquefasciatus, Culex. nigripalpus, and Anopheles albimanus. […] AeaTMOF was also ...

[6] = system: late trypsin transcript in the gut epithelial cells; details: circulating in hemolymph of females after the blood meal; cited from earlier work
Source text: as §3

YDPAPPPPPP [AeaTMOF]
E. coli growth ([1]; 630 nm): significantly inhibited the growth of the E. coli cells | Viable colonies at end of incubation ([1]; initial 2.7 × 10^4 cells, LB medium, plated on LB agar, triplicates): 4–10 colonies | Effect on blood-fed female mosquitoes (female mosquitoes): only inhibits trypsin biosynthesis, and as a result the blood meal is not digested and egg development is inhibited, making the female mosquitoes sterile but not killing them | Inhibition of luciferase biosynthesis at lowest concentration (bacterial 70 S ribosome; AeaTMOF at 0.001 μM, Oncocin112 (1–13) at 0.01 μM): do not inhibit the biosynthesis of luciferase | Concentration of complete inhibition of luciferase biosynthesis (bacterial 70 S ribosome; E. coli S30 extract, luminescence): 250 to 750 µM | IC50 (bacterial 70 S ribosome; E. coli S30 lysate, pBestluc DNA, peptide 0.001 to 750 μM, luminescence read-out, mean of three determinations, read-out: IC50, inhibition of luciferase biosynthesis (luminescence)): 1000 nM | IC50 [2]: 1800 nM | E. coli growth ([3]; SbmA^- cells expressing ABC-tmfA importer, 3 and 10 mM peptide, 37 °C, 18 h, 630 nm, p < 0.05 for inhibition): significantly (p < 0.05) inhibited | E. coli cell growth (discussion) ([3]; cells that only expressed ABCtmfA receptor/importer, up to 10 mM): inhibiting protein synthesis and cell growth | Importer used ([3]; inferred from growth of SbmA^+ and SbmA^- ABC-tmfA E. coli, 3 and 10 mM): can use the mosquito ABCtmfA importer, as well as the bacterial SbmA importer | Effect on larvae (Ae. aegypti larvae): stopped larval trypsin biosynthesis and caused larval starvation and death | Effect on translation of trypsin mRNA [4]: stop the translation of trypsin mRNA | Binding to gut receptor/importer [5]: binds a gut-specific receptor ABC-tmfA transporter | Effect on activity of luciferase synthesized in vitro (luciferase): did not affect the activity of luciferase | Inhibition of translation of late trypsin transcript (late trypsin transcript; AeaTMOF expressed on coat protein of Tobacco Mosaic Virus, fed to insects): stopped the translation of the trypsin transcript in the gut epithelial cells | Inhibition of translation of late trypsin transcript (late trypsin transcript): inhibit the translation of the late trypsin transcript | Effect on translation of late trypsin transcript [6]: affects the translation of the late trypsin transcript in the gut epithelial cells
